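All cell lines were grown in 96-well plates and treated with compound for 48 hours. GI50 is the concentration that inhibits growth by half. TGI: concentration producing complete growth inhibition.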
What was measured:
Experiment in all cases: DTP human tumour cell line panel, 48 h
[1] = tested on: UACC-257 melanoma
[2] = tested on: A498 renal
[3] = tested on: SF-539 CNS
[4] = tested on: RXF 393 renal
[5] = tested on: SK-MEL-2 melanoma
[6] = tested on: ACHN renal
[7] = tested on: TK-10 renal
[8] = tested on: SNB-19 CNS
[9] = tested on: K-562 leukemia
[10] = tested on: COLO 205 colon

CN1CCN(Cc2ccc(NC(=O)c3cncc(C#Cc4c(N)ncc5cc(F)ccc45)c3)cc2C(F)(F)F)CC1 was tested, and the GI50 [1] was 0.975 µM, the TGI [1] was 2.4 µM and the GI50 [2] was 0.839 µM. For the same compound, the TGI [2] was 3.99 µM, the GI50 [3] was 0.86 µM and the TGI [3] was 2.73 µM. For the same compound, the GI50 [4] was 0.836 µM, the TGI [4] was 1.57 µM and the GI50 [5] was 1.44 µM. The TGI [5] was 6.14 µM, the GI50 [6] was 1.99 µM and the TGI [6] was 8.84 µM. The GI50 [7] was 2.08 µM, the TGI [7] was 4.43 µM and the GI50 [8] was 0.87 µM. The TGI [8] was 1.57 µM, the GI50 [9] was 0.005 µM and the TGI [9] was 1.09 µM. For the same compound, the GI50 [10] was 0.581 µM and the TGI [10] was 4.93 µM.
O=C1/C(=C/c2ccc(Cl)cc2)CN(C(=O)C(Cl)Cl)C/C1=C\c1ccc(Cl)cc1 gave a GI50 [1] of 0.465 µM, a TGI [1] of 1.55 µM and a GI50 [2] of 0.211 µM. It also gave a TGI [2] of 0.771 µM, a GI50 [3] of 0.194 µM and a TGI [3] of 0.467 µM. The GI50 [4] was 0.18 µM, the TGI [4] was 0.378 µM and the GI50 [5] was 1.18 µM. For the same compound, the TGI [5] was 3.07 µM, the GI50 [6] was 0.214 µM and the TGI [6] was 0.475 µM. The GI50 [7] was 0.374 µM, the TGI [7] was 1.52 µM and the GI50 [8] was 0.177 µM. The TGI [8] was 0.576 µM, the GI50 [9] was 0.0469 µM and the TGI [9] was greater than 68.9 µM. The GI50 [10] was 0.233 µM and the TGI [10] was 0.756 µM.
For CCCC(=O)NNc1[nH]c(-c2ccc(OC)cc2)cc1C(=O)OCC, the GI50 [1] was 1.6 µM, the TGI [1] was 14.8 µM and the GI50 [2] was 35.3 µM. For the same compound, the TGI [2] was greater than 100 µM, the GI50 [3] was 19.3 µM and the TGI [3] was 37 µM. For the same compound, the GI50 [4] was 22 µM, the TGI [4] was 45.1 µM and the GI50 [5] was 4.59 µM. It also gave a TGI [5] of 8.48 µM, a GI50 [6] of 10.9 µM and a TGI [6] of 22.9 µM. It also gave a GI50 [7] of 15.9 µM, a TGI [7] of 30.1 µM and a GI50 [8] of 54.3 µM. It also gave a TGI [8] greater than 100 µM, a GI50 [9] of 9.61 µM and a TGI [9] greater than 100 µM. The GI50 [10] was 2.39 µM and the TGI [10] was 5.89 µM.
With Cc1ccc(NC(=O)c2ccnc(N3CCCC3)c2)cc1-c1ccc(C(=O)NCC2CC2)cc1 the GI50 [1] was greater than 25 µM, the TGI [1] was greater than 25 µM and the GI50 [2] was greater than 25 µM. The TGI [2] was greater than 25 µM, the GI50 [3] was greater than 25 µM and the TGI [3] was greater than 25 µM. For the same compound, the TGI [4] was greater than 25 µM, the GI50 [5] was greater than 25 µM and the TGI [5] was greater than 25 µM. It also gave a GI50 [6] greater than 25 µM, a TGI [6] greater than 25 µM and a GI50 [7] greater than 25 µM. For the same compound, the TGI [7] was greater than 25 µM, the GI50 [8] was greater than 25 µM and the TGI [8] was greater than 25 µM. It also gave a GI50 [9] greater than 25 µM, a TGI [9] greater than 25 µM and a GI50 [10] greater than 25 µM. It also gave a TGI [10] greater than 25 µM.
In the case of COc1cc(C(=O)n2nc(N3CCN(C)CC3)c3cc(N)ccc32)cc(OC)c1OC, the GI50 [1] is reported as 28.5 µM, the TGI [1] is reported as greater than 100 µM and the GI50 [2] is reported as 2.82 µM. For the same compound, the TGI [2] was 7.12 µM, the GI50 [3] was 2.86 µM and the TGI [3] was 10.1 µM. For the same compound, the GI50 [4] was 3.04 µM, the TGI [4] was greater than 100 µM and the GI50 [5] was 10.4 µM. It also gave a TGI [5] of 67.5 µM, a GI50 [6] of 4.2 µM and a TGI [6] greater than 100 µM. For the same compound, the GI50 [7] was 15.6 µM, the TGI [7] was greater than 100 µM and the GI50 [8] was 4.75 µM. For the same compound, the TGI [8] was greater than 100 µM, the GI50 [9] was 3.57 µM and the TGI [9] was 13.2 µM. For the same compound, the GI50 [10] was 15.5 µM and the TGI [10] was 37.3 µM.
CC/C(=C(\CC)c1ccc(OCCN(CC)CC)cc1)c1ccc(OCCN(CC)CC)cc1 showed a GI50 [1] of 1.23 µM, a TGI [1] of 2.82 µM and a GI50 [2] of 0.76 µM. For the same compound, the TGI [2] was 3.31 µM, the GI50 [3] was 1.29 µM and the TGI [3] was 3.85 µM. For the same compound, the GI50 [4] was 1.63 µM, the TGI [4] was 3.75 µM and the GI50 [5] was 1.9 µM. It also gave a TGI [5] of 7.58 µM, a GI50 [6] of 3.99 µM and a TGI [6] of 18.7 µM. For the same compound, the GI50 [7] was 3.34 µM, the TGI [7] was 12.1 µM and the GI50 [8] was 3.26 µM. The TGI [8] was 10.6 µM, the GI50 [9] was 1.79 µM and the TGI [9] was 10.5 µM. The GI50 [10] was 1.47 µM and the TGI [10] was 3.07 µM.
